The values below come from PubChem BioAssay (NCI).

Common to all, as to assay: NCI anticancer screen, dose series, 48 h
Assay [1] deals with SK-OV-3 ovarian.
In assay [2] the test system is T-47D breast.
Assay [3] concerns SR leukemia.
In assay [4] the test system is MALME-3M melanoma.
Assay [5] relates to 786-0 renal.
Assay [6] deals with HS 578T breast.
The test system of assay [7] is TK-10 renal.
The subject of assay [8] is SN12C renal.
Assay [9] concerns SNB-19 CNS.
Assay [10] relates to HT29 colon.

The structures appear in SMILES notation.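 Grown in 96-well plates, cells were treated for 48 hours with each compound at five concentrations. Insufficient inhibition: endpoint recorded as highest concentration tested. Here, GI50 denotes the concentration required for 50% inhibition of growth. TGI: total growth inhibition.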

With `C=C1CC[C@@H]2[C@](C)(COC(C)=O)[C@H](OC(C)=O)CC[C@@]2(C)[C@@H]1CC(Nc1ccc(S(=O)(=O)Nc2ccc(Cl)nn2)cc1)C1=CCOC1=O` (some centres undefined), the GI50 in assay [1] was 4.05 µM; in assay [2], 1.51 µM; in assay [3], 1.35 µM; in assay [4] it was 1.72 µM; in assay [5], 1.69 µM; in assay [6], 6.17 µM. For the same compound, the GI50 was 2.13 µM in assay [7], 1.25 µM in [8] and 1.91 µM in [9]. The TGI in assay [1] was 12.3 µM; in [2] it was 4.25 µM; in [3] it was 8.1 µM; in assay [4], 3.9 µM; in assay [5], 3.14 µM; in assay [6] it was above 100 µM. Further, the TGI in assay [7] came out at 4.19 µM; in assay [8] it was 3.66 µM; in [9] it was 3.91 µM.

In the case of `Cc1[nH]c2ccc(F)cc2c1-c1nc2c3cccnc3c3ncccc3c2[nH]1`, the GI50 in [1] was 0.35 µM; in assay [2] it was 0.357 µM; in [3] it was 0.134 µM; in assay [4], 0.283 µM; in assay [10], 0.479 µM; in assay [5], 0.327 µM. Also, the GI50 in [7] is 0.46 µM; in [8], 0.403 µM; in assay [9], 0.384 µM. The TGI in assay [1], in assay [2], in assay [3], in [4], in assay [10] and in assay [5] was above 100 µM throughout. Also, the TGI in [7], in assay [8] and in [9] was above 100 µM throughout.

Consider `C[CH2][Sn]([CH2]C)([O]C(=O)c1ccccc1F)[O][Sn]([CH2]C)([CH2]C)[O]C(=O)c1ccccc1F`, for which the GI50 was above 50.5 µM in assay [1]; 34.6 µM in assay [3]; 14.9 µM in assay [4]; 39.8 µM in [10]; 25.2 µM in assay [5]; 18 µM in assay [7]. Besides, the GI50 in [8] was 27 µM; in assay [9], above 43.6 µM. Besides, the TGI was above 90.3 µM in assay [1]; above 100 µM in [3]; 30.4 µM in [4]; above 72.7 µM in assay [10]; above 56.6 µM in [5]; 32.1 µM in [7]. Also, the TGI in [8] is above 57.4 µM; in assay [9], above 57.6 µM.

In the case of `Nc1nc(-c2ccco2)cc(-c2ccc(CO)o2)n1`, the TGI in [3], in assay [4], in assay [10], in [5], in assay [7] and in assay [8] was above 100 µM throughout. The compound further displayed a TGI in assay [9] above 100 µM.

As to `CCOC(=O)C1CCCCN1C(=O)c1ccc(Nc2cnc3cc(C(F)(F)F)ccc3n2)cc1` (centres undefined), the GI50 in [2] is 6.91 µM; in assay [3] it was 3.8 µM; in [4], 6.89 µM; in [5], 4.82 µM; in assay [6], 3.18 µM; in assay [7], 13.3 µM. The GI50 in assay [8] was 16.2 µM; in assay [9], 21.3 µM. Besides, the TGI in assay [2] is above 100 µM; in assay [3], 19.1 µM; in assay [4], 22.1 µM; in assay [5], 16.4 µM; in assay [6] it was 14.7 µM; in [7] it was 28 µM. Moreover, the figures for the TGI in [8] and in [9] were 31.5 µM and 64.1 µM, respectively.

For `CC1=C(C(=O)N(C)c2ccc(Cl)c(C(=O)OC(C)C)c2)SCCO1`, the TGI in assay [1], in assay [2], in assay [4], in assay [10], in assay [5] and in assay [6] was above 100 µM each time. Further, the TGI in assay [7], in assay [8] and in assay [9] was above 100 µM in each case.

Take `O=[N+]([O-])c1cc(Cl)cnc1Br`: the TGI in [1] is 22.4 µM; in assay [2], above 100 µM; in [4] it was 49.7 µM; in assay [10], 8.51 µM; in assay [5], 20.2 µM; in assay [6] it was 59.9 µM. Besides, the values for the TGI in assay [7], in assay [8] and in assay [9] were 12.4 µM, 7.82 µM and 26.8 µM, respectively.

Turning to `O=S(=O)(/C=C/CS(=O)(=O)c1ccccc1)c1ccccc1`, the TGI is 87 µM in assay [1]; 36.4 µM in assay [3]; above 100 µM in assay [4]; above 100 µM in [10]; 55.6 µM in assay [5]; above 100 µM in assay [7]. Further, the TGI was 88 µM in assay [8] and above 100 µM in assay [9].

Turning to `COc1cc2c(cc1OC)[C@@H](Nc1ccc(F)cc1)C1COC(=O)[C@@H]1C2c1cc(OC)c(O)c(OC)c1` (some centres undefined), the TGI in assay [1] was 7 µM; in assay [3] it was 0.282 µM; in assay [4], above 88.8 µM; in assay [10], above 58.3 µM; in assay [5], 2.51 µM; in assay [7] it was 63 µM. The TGI in assay [8] was 13.7 µM; in assay [9], above 100 µM.

Regarding `Cc1ccc(-c2nc3nc(-c4ccccc4)nc(N4CCNCC4)c3o2)cc1`, the GI50 in assay [1] is 1.9 µM; in assay [2] it was 0.832 µM; in [3], 0.223 µM; in [4], 1.81 µM; in [10], 0.242 µM; in assay [5], 0.585 µM. Also, the GI50 is 0.747 µM in assay [7], 0.849 µM in [8] and 1.06 µM in [9]. The TGI in assay [1] was 3.42 µM; in assay [2] it was 2.6 µM; in assay [3], 0.611 µM; in assay [4], 3.59 µM; in assay [10], 0.567 µM; in [5], 1.27 µM. In addition, the figures for the TGI in [7], in assay [8] and in assay [9] were 1.71 µM, 2.31 µM and 2.58 µM, respectively.

Consider `O=c1cc(-c2cccnc2)[nH]c2cc3c(cc12)OCO3`, for which the TGI was above 67 µM in [1]; above 100 µM in assay [2]; above 26 µM in assay [4]; 59.3 µM in assay [10]; above 100 µM in assay [5]; 69.6 µM in [6]. Moreover, the values for the TGI in [7], in assay [8] and in assay [9] were above 100 µM, above 100 µM and 79.6 µM, respectively.

Regarding `O=C(O)C(CS)NCc1c2ccccc2nc2ccccc12` (centres undefined), the TGI in [1] was above 100 µM; in assay [3], 97.3 µM; in assay [4] it was above 100 µM; in [10], above 100 µM; in assay [5] it was above 100 µM; in [7], above 100 µM. In addition, the TGI in [8] and in assay [9] was above 100 µM each time.
